Experimental data published in PubChem BioAssay (NCI).
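Five concentrations, 48 hours, 96-well plates. TGI is the concentration that stops growth completely.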

Assays:
Experiment in all cases: NCI anticancer screen, dose series, 48 h
786-0 renal = tested on: 786-0 renal
A498 renal = tested on: A498 renal
A549 NSCLC = tested on: A549 NSCLC
ACHN renal = tested on: ACHN renal
BT-549 breast = tested on: BT-549 breast
CAKI-1 renal = tested on: CAKI-1 renal
DU-145 prostate = tested on: DU-145 prostate
EKVX NSCLC = tested on: EKVX NSCLC
HCC-2998 colon = tested on: HCC-2998 colon
HCT-116 colon = tested on: HCT-116 colon
HCT-15 colon = tested on: HCT-15 colon
HL-60(TB) leukemia = tested on: HL-60(TB) leukemia
HOP-62 NSCLC = tested on: HOP-62 NSCLC
HOP-92 NSCLC = tested on: HOP-92 NSCLC
HS 578T breast = tested on: HS 578T breast
HT29 colon = tested on: HT29 colon
IGROV1 ovarian = tested on: IGROV1 ovarian
KM12 colon = tested on: KM12 colon
LOX IMVI melanoma = tested on: LOX IMVI melanoma
M14 melanoma = tested on: M14 melanoma
MALME-3M melanoma = tested on: MALME-3M melanoma
MCF7 breast = tested on: MCF7 breast
MDA-MB-231 breast = tested on: MDA-MB-231 breast
MDA-MB-435 = tested on: MDA-MB-435
MDA-N = tested on: MDA-N
NCI-H226 lung = tested on: NCI-H226 lung
NCI-H23 lung = tested on: NCI-H23 lung
NCI-H460 lung = tested on: NCI-H460 lung
NCI-H522 lung = tested on: NCI-H522 lung
NCI/ADR-RES ovarian = tested on: NCI/ADR-RES ovarian
OVCAR-3 ovarian = tested on: OVCAR-3 ovarian
OVCAR-4 ovarian = tested on: OVCAR-4 ovarian
OVCAR-5 ovarian = tested on: OVCAR-5 ovarian
OVCAR-8 ovarian = tested on: OVCAR-8 ovarian
PC-3 prostate = tested on: PC-3 prostate
RPMI-8226 leukemia = tested on: RPMI-8226 leukemia
RXF 393 renal = tested on: RXF 393 renal
SF-268 CNS = tested on: SF-268 CNS
SF-295 CNS = tested on: SF-295 CNS
SF-539 CNS = tested on: SF-539 CNS
SK-MEL-2 melanoma = tested on: SK-MEL-2 melanoma
SK-MEL-28 melanoma = tested on: SK-MEL-28 melanoma
SK-MEL-5 melanoma = tested on: SK-MEL-5 melanoma
SK-OV-3 ovarian = tested on: SK-OV-3 ovarian
SN12C renal = tested on: SN12C renal
SNB-19 CNS = tested on: SNB-19 CNS
SNB-75 CNS = tested on: SNB-75 CNS
SR leukemia = tested on: SR leukemia
SW-620 colon = tested on: SW-620 colon
T-47D breast = tested on: T-47D breast
TK-10 renal = tested on: TK-10 renal
U251 CNS = tested on: U251 CNS
UACC-257 melanoma = tested on: UACC-257 melanoma
UACC-62 melanoma = tested on: UACC-62 melanoma
UO-31 renal = tested on: UO-31 renal

## Cc1cc(O)c2c(c1)C(=O)C(c1c(C)cc3c(c1O)C(=O)C1OC1C3=O)=CC2=O (stereo not given)
786-0 renal
  TGI: 4.16 µM
A498 renal
  TGI: 14.3 µM
A549 NSCLC
  TGI: 43.1 µM
ACHN renal
  TGI: 2.36 µM
BT-549 breast
  TGI: 6.32 µM
CAKI-1 renal
  TGI: 2.11 µM
DU-145 prostate
  TGI: > 47.3 µM
EKVX NSCLC
  TGI: 12.5 µM
HCC-2998 colon
  TGI: 17.2 µM
HCT-116 colon
  TGI: 3.21 µM
HCT-15 colon
  TGI: 3.05 µM
HL-60(TB) leukemia
  TGI: 0.0151 µM
HOP-62 NSCLC
  TGI: 26.3 µM
HOP-92 NSCLC
  TGI: 2.11 µM
HS 578T breast
  TGI: 98.9 µM
HT29 colon
  TGI: 11.7 µM
IGROV1 ovarian
  TGI: 23.9 µM
KM12 colon
  TGI: 28.8 µM
LOX IMVI melanoma
  TGI: 5.87 µM
M14 melanoma
  TGI: 8.12 µM
MALME-3M melanoma
  TGI: 3.96 µM
MCF7 breast
  TGI: 12.1 µM
MDA-MB-231 breast
  TGI: 4.14 µM
MDA-MB-435
  TGI: 7.71 µM
MDA-N
  TGI: 2.75 µM
NCI-H226 lung
  TGI: 32.8 µM
NCI-H23 lung
  TGI: 22.8 µM
NCI-H460 lung
  TGI: 25.8 µM
NCI-H522 lung
  TGI: 1.4 µM
NCI/ADR-RES ovarian
  TGI: > 23.1 µM
OVCAR-3 ovarian
  TGI: 5.87 µM
OVCAR-4 ovarian
  TGI: 11.1 µM
OVCAR-5 ovarian
  TGI: 13 µM
OVCAR-8 ovarian
  TGI: 18.2 µM
PC-3 prostate
  TGI: 25.1 µM
RPMI-8226 leukemia
  TGI: 3.52 µM
RXF 393 renal
  TGI: 3.11 µM
SF-268 CNS
  TGI: 26.2 µM
SF-295 CNS
  TGI: 32.6 µM
SF-539 CNS
  TGI: 10.2 µM
SK-MEL-2 melanoma
  TGI: 24.6 µM
SK-MEL-28 melanoma
  TGI: 5.53 µM
SK-MEL-5 melanoma
  TGI: 19.7 µM
SK-OV-3 ovarian
  TGI: 38.7 µM
SN12C renal
  TGI: 11.2 µM
SNB-19 CNS
  TGI: > 50.7 µM
SNB-75 CNS
  TGI: 28.1 µM
SR leukemia
  TGI: 40.1 µM
SW-620 colon
  TGI: 7.54 µM
T-47D breast
  TGI: > 100 µM
TK-10 renal
  TGI: 3.36 µM
U251 CNS
  TGI: 20.6 µM
UACC-257 melanoma
  TGI: 11.3 µM
UACC-62 melanoma
  TGI: 4.77 µM
UO-31 renal
  TGI: 3.77 µM
